Tested on: MV-4-11 cells
Assay: Gene expression microarray analysis (Affymetrix PrimeView) and GSEA
Type: cell-based, human
Set-up: RFU PODN (11730768_x_at) / Fold change /veh PODN (11730768_x_at) / RFU LINC00158 (11744669_a_at) / Fold change /veh LINC00158 (11744669_a_at) / RFU DUSP10 (11751237_a_at) / Fold change /veh DUSP10 (11751237_a_at) / RFU ID3 (11757404_x_at) / Fold change /veh ID3 (11757404_x_at) / RFU PLEKHG5 (11737974_s_at) / Fold change /veh PLEKHG5 (11737974_s_at) / RFU LRRC4B (11730491_at) / Fold change /veh LRRC4B (11730491_at) / RFU GIMAP4 (11747438_a_at) / Fold change /veh GIMAP4 (11747438_a_at) / RFU KRT8 (11758183_x_at) / Fold change /veh KRT8 (11758183_x_at) / RFU CNN1 (11734310_a_at) / Fold change /veh CNN1 (11734310_a_at) / RFU VPS37D (11726825_at) / Fold change /veh VPS37D (11726825_at) / RFU C10orf10 (11716522_x_at) / Fold change /veh C10orf10 (11716522_x_at) / RFU KIR2DL2 /// KIR2DL4 /// KIR2DL5A /// KIR2DL5B /// KIR2DS1 /// KIR2DS2 /// KIR2DS3 /// KIR2DS4 /// KIR3DL3 /// KIR3DL3 /// KIR3DS1 (11738374_at) / Fold change /veh KIR2DL2 /// KIR2DL4 /// KIR2DL5A /// KIR2DL5B /// KIR2DS1 /// KIR2DS2 /// KIR2DS3 /// KIR2DS4 /// KIR3DL3 /// KIR3DL3 /// KIR3DS1 (11738374_at) / RFU C1QL1 (11718748_at) / Fold change /veh C1QL1 (11718748_at) / RFU TMPRSS4 (11747572_a_at) / Fold change /veh TMPRSS4 (11747572_a_at) / RFU HAMP (11756126_x_at) / Fold change /veh HAMP (11756126_x_at) / RFU RNFT2 (11725882_a_at) / Fold change /veh RNFT2 (11725882_a_at) / RFU NR4A2 (11747474_a_at) / Fold change /veh NR4A2 (11747474_a_at) / RFU ABCC12 (11746883_a_at) / Fold change /veh ABCC12 (11746883_a_at) / RFU TMEM136 (11760407_x_at) / Fold change /veh TMEM136 (11760407_x_at) / RFU CLDN22 /// WWC2 (11732394_at) / Fold change /veh CLDN22 /// WWC2 (11732394_at) / RFU HLA-DPB1 (11760878_x_at) / Fold change /veh HLA-DPB1 (11760878_x_at) / RFU SPINT1 (11716480_a_at) / Fold change /veh SPINT1 (11716480_a_at) / RFU GAP43 (11754022_s_at) / Fold change /veh GAP43 (11754022_s_at) / RFU A4GNT (11735810_at) / Fold change /veh A4GNT (11735810_at) / RFU PRB3 (11715151_x_at) / Fold change /veh PRB3 (11715151_x_at) / RFU TUBB4B (11761932_at) / Fold change /veh TUBB4B (11761932_at) / RFU CAPN14 (11732068_a_at) / Fold change /veh CAPN14 (11732068_a_at) / RFU TMCC2 (11721928_a_at) / Fold change /veh TMCC2 (11721928_a_at) / RFU IRGQ (11745062_a_at) / Fold change /veh IRGQ (11745062_a_at) / RFU FAM174B (11720279_a_at) / Fold change /veh FAM174B (11720279_a_at) / RFU TMPRSS4 (11748680_a_at) / Fold change /veh TMPRSS4 (11748680_a_at) / RFU FAM212B (11763350_a_at) / Fold change /veh FAM212B (11763350_a_at) / RFU PLEKHG5 (11743358_a_at) / Fold change /veh PLEKHG5 (11743358_a_at) / RFU ZSCAN30 (11745921_a_at) / Fold change /veh ZSCAN30 (11745921_a_at) / RFU CMKLR1 (11741424_a_at) / Fold change /veh CMKLR1 (11741424_a_at) / RFU LOC101060620 /// MAPK8IP1 (11723275_at) / Fold change /veh LOC101060620 /// MAPK8IP1 (11723275_at) / RFU SPTSSB (11747773_x_at) / Fold change /veh SPTSSB (11747773_x_at) / RFU PRSS12 (11739890_at) / Fold change /veh PRSS12 (11739890_at) / RFU BIN1 (11741810_x_at) / Fold change /veh BIN1 (11741810_x_at) / RFU WNT11 (11732464_a_at) / Fold change /veh WNT11 (11732464_a_at) / RFU C10orf10 (11716521_a_at) / Fold change /veh C10orf10 (11716521_a_at) / RFU C5orf56 (11738089_at) / Fold change /veh C5orf56 (11738089_at) / RFU CYB561 (11721691_x_at) / Fold change /veh CYB561 (11721691_x_at) / RFU ANKRD19P (11752326_a_at) / Fold change /veh ANKRD19P (11752326_a_at) / RFU OR2T12 /// OR2T33 /// OR2T8 (11738714_s_at) / Fold change /veh OR2T12 /// OR2T33 /// OR2T8 (11738714_s_at) / RFU VCAN (11748164_a_at) / Fold change /veh VCAN (11748164_a_at) / RFU JSRP1 (11732532_at) / Fold change /veh JSRP1 (11732532_at) / RFU KRTAP10-11 (11738290_x_at) / Fold change /veh KRTAP10-11 (11738290_x_at) / RFU MYO3A (11730013_a_at) / Fold change /veh MYO3A (11730013_a_at) / RFU EBF3 (11725865_a_at) / Fold change /veh EBF3 (11725865_a_at) / RFU CAMK2N1 (11719241_x_at) / Fold change /veh CAMK2N1 (11719241_x_at) / RFU C5orf56 (11738088_a_at) / Fold change /veh C5orf56 (11738088_a_at) / RFU OLFML3 (11715873_a_at) / Fold change /veh OLFML3 (11715873_a_at) / RFU LOC100653217 /// NTM (11731650_a_at) / Fold change /veh LOC100653217 /// NTM (11731650_a_at) / RFU MAPK11 (11762145_a_at) / Fold change /veh MAPK11 (11762145_a_at) / RFU FIZ1 (11724087_x_at) / Fold change /veh FIZ1 (11724087_x_at) / RFU OASL (11726364_x_at) / Fold change /veh OASL (11726364_x_at) / RFU SOX15 (11748057_x_at) / Fold change /veh SOX15 (11748057_x_at) / RFU CD79A (11719716_a_at) / Fold change /veh CD79A (11719716_a_at) / RFU HIST1H1D (11736915_at) / Fold change /veh HIST1H1D (11736915_at) / RFU CASKIN2 (11723855_a_at) / Fold change /veh CASKIN2 (11723855_a_at) / RFU LOC730098 (11760151_x_at) / Fold change /veh LOC730098 (11760151_x_at) / RFU OR4N2 (11742367_at) / Fold change /veh OR4N2 (11742367_at) / RFU PRRT2 (11749266_a_at) / Fold change /veh PRRT2 (11749266_a_at) / RFU SNX32 (11753110_a_at) / Fold change /veh SNX32 (11753110_a_at) / RFU CDHR5 (11726645_a_at) / Fold change /veh CDHR5 (11726645_a_at) / RFU RCAN1 (11760418_a_at) / Fold change /veh RCAN1 (11760418_a_at) / RFU FAM167A (11723789_a_at) / Fold change /veh FAM167A (11723789_a_at) / RFU FAM26E (11764081_at) / Fold change /veh FAM26E (11764081_at) / RFU ISYNA1 (11749810_s_at) / Fold change /veh ISYNA1 (11749810_s_at) / RFU ACY1 (11761880_at) / Fold change /veh ACY1 (11761880_at) / RFU 11764098_at / Fold change /veh 11764098_at / RFU SAMD14 (11745864_x_at) / Fold change /veh SAMD14 (11745864_x_at) / RFU NPB (11741838_a_at) / Fold change /veh NPB (11741838_a_at) / RFU TMPRSS6 (11731388_a_at) / Fold change /veh TMPRSS6 (11731388_a_at) / RFU KRTAP10-2 (11738614_at) / Fold change /veh KRTAP10-2 (11738614_at) / RFU ARHGAP8 /// PRR5-ARHGAP8 (11727945_x_at) / Fold change /veh ARHGAP8 /// PRR5-ARHGAP8 (11727945_x_at) / RFU KRTAP5-7 /// NADSYN1 (11734609_at) / Fold change /veh KRTAP5-7 /// NADSYN1 (11734609_at) / RFU RASL12 (11751679_a_at) / Fold change /veh RASL12 (11751679_a_at) / RFU CDKN2B (11736163_a_at) / Fold change /veh CDKN2B (11736163_a_at) / RFU PRF1 (11729649_at) / Fold change /veh PRF1 (11729649_at) / RFU, ZNF638 /// ZNF638-IT1 / Fold change vs veh, ZNF638 /// ZNF638-IT1 / RFU, PANK3 / Fold change vs veh, PANK3 / RFU, SH3YL1 / Fold change vs veh, SH3YL1 / RFU, ZEB2 / Fold change vs veh, ZEB2 / RFU, NRIP1 / Fold change vs veh, NRIP1 / RFU, PTTG1IP / Fold change vs veh, PTTG1IP / RFU, CAPN2 / Fold change vs veh, CAPN2 / RFU, MED14 / Fold change vs veh, MED14 / RFU, SNORA58 / Fold change vs veh, SNORA58 / RFU, C1orf63 / Fold change vs veh, C1orf63 / RFU, LRRFIP1 / Fold change vs veh, LRRFIP1 / RFU, NDUFAF7 / Fold change vs veh, NDUFAF7 / RFU, SLC12A2 / Fold change vs veh, SLC12A2 / RFU, IBTK / Fold change vs veh, IBTK / RFU, ESF1 / Fold change vs veh, ESF1 / Fold change vs veh, TMEM50B / RFU, TAOK1 / Fold change vs veh, TAOK1 / RFU, ACBD3 / Fold change vs veh, ACBD3 / RFU, TMA16 / Fold change vs veh, TMA16 / RFU, RWDD3 / Fold change vs veh, RWDD3 / RFU, BCAT1 / Fold change vs veh, BCAT1 / RFU, EDEM3 / Fold change vs veh, EDEM3 / RFU, TMEM33 / Fold change vs veh, TMEM33 / RFU, WDR75 / Fold change vs veh, WDR75 / RFU, AHCTF1 / Fold change vs veh, AHCTF1 / RFU, TFRC / Fold change vs veh, TFRC / RFU, ZDHHC17 / Fold change vs veh, ZDHHC17 / RFU, NOM1 / Fold change vs veh, NOM1 / RFU, ARL8B / Fold change vs veh, ARL8B / RFU, ZBTB11 / Fold change vs veh, ZBTB11 / RFU, TAMM41 / Fold change vs veh, TAMM41 / RFU, KIAA1704 /// LOC100996395 / Fold change vs veh, KIAA1704 /// LOC100996395 / RFU, ING1 / Fold change vs veh, ING1 / RFU, TRMT61B / Fold change vs veh, TRMT61B / RFU, FUBP3 / Fold change vs veh, FUBP3 / RFU, TP53 / Fold change vs veh, TP53 / RFU, TNKS2 / Fold change vs veh, TNKS2 / RFU, ZFP14 / Fold change vs veh, ZFP14 / RFU, ACTR2 / Fold change vs veh, ACTR2 / RFU, PPP3R1 / Fold change vs veh, PPP3R1 / RFU, PIK3R1 / Fold change vs veh, PIK3R1 / RFU, HNRNPA1 / Fold change vs veh, HNRNPA1 / RFU, RNF170 / Fold change vs veh, RNF170 / RFU, ZNF28 / Fold change vs veh, ZNF28 / RFU, RNGTT / Fold change vs veh, RNGTT / RFU, OGT / Fold change vs veh, OGT / RFU, BRD1 / Fold change vs veh, BRD1 / RFU, MARS / Fold change vs veh, MARS / RFU, ZNF655 / Fold change vs veh, ZNF655 / RFU, FAHD1 / Fold change vs veh, FAHD1 / RFU, BDP1 / Fold change vs veh, BDP1 / RFU, LRRCC1 / Fold change vs veh, LRRCC1 / RFU, ARID1A / Fold change vs veh, ARID1A / RFU, ZNF146 / Fold change vs veh, ZNF146 / RFU, ZNF330 / Fold change vs veh, ZNF330 / RFU, GPN3 / Fold change vs veh, GPN3 / RFU, C9orf123 / Fold change vs veh, C9orf123 / RFU, N4BP2L2 / Fold change vs veh, N4BP2L2 / RFU, ARFIP1 / Fold change vs veh, ARFIP1 / RFU, FAM179B / Fold change vs veh, FAM179B / RFU, BCL10 / Fold change vs veh, BCL10 / RFU, UHRF1BP1L / Fold change vs veh, UHRF1BP1L / RFU, BET1 / Fold change vs veh, BET1 / RFU, CNOT2 / Fold change vs veh, CNOT2 / RFU, ZNF268 / Fold change vs veh, ZNF268 / Fold change vs veh, ZNF507 / RFU, DGCR2 / Fold change vs veh, DGCR2 / RFU, WDSUB1 / Fold change vs veh, WDSUB1 / Fold change vs veh, HSP90B1 /// MIR3652 / RFU, ADSS / Fold change vs veh, ADSS / RFU, GK / Fold change vs veh, GK / RFU, ZNF148 / Fold change vs veh, ZNF148 / RFU, TAF9 / Fold change vs veh, TAF9 / RFU, SLC1A5 / Fold change vs veh, SLC1A5 / RFU, SLMO2 / Fold change vs veh, SLMO2 / RFU, ABCC4 / Fold change vs veh, ABCC4 / RFU, LOC101060439 /// RAP1B / Fold change vs veh, LOC101060439 /// RAP1B / RFU, RFX7 / Fold change vs veh, RFX7 / RFU, GTPBP10 / Fold change vs veh, GTPBP10 / RFU, CNEP1R1 / Fold change vs veh, CNEP1R1 / RFU, BIVM-ERCC5 /// ERCC5 / Fold change vs veh, BIVM-ERCC5 /// ERCC5 / RFU, ILF3 / Fold change vs veh, ILF3 / RFU 11762660_at / Fold change /veh 11762660_at / RFU VCAN (11757783_s_at) / Fold change /veh VCAN (11757783_s_at) / RFU DDX43 (11728927_at) / Fold change /veh DDX43 (11728927_at) / RFU KRT8 (11758188_x_at) / Fold change /veh KRT8 (11758188_x_at) / RFU NKD1 (11759106_at) / Fold change /veh NKD1 (11759106_at) / RFU SRD5A1 (11742802_a_at) / Fold change /veh SRD5A1 (11742802_a_at) / RFU TPSAB1 /// TPSB2 (11721975_s_at) / Fold change /veh TPSAB1 /// TPSB2 (11721975_s_at) / RFU GSTM3 (11746129_a_at) / Fold change /veh GSTM3 (11746129_a_at) / RFU IL23R (11737362_x_at) / Fold change /veh IL23R (11737362_x_at) / RFU TMEM51 (11727254_a_at) / Fold change /veh TMEM51 (11727254_a_at) / RFU PIWIL2 (11732686_x_at) / Fold change /veh PIWIL2 (11732686_x_at) / RFU ORM1 (11744905_x_at) / Fold change /veh ORM1 (11744905_x_at) / RFU CCDC152 (11743942_at) / Fold change /veh CCDC152 (11743942_at) / RFU ECM1 (11717891_a_at) / Fold change /veh ECM1 (11717891_a_at) / RFU IL23R (11748794_a_at) / Fold change /veh IL23R (11748794_a_at) / RFU TNFAIP8L3 (11732012_x_at) / Fold change /veh TNFAIP8L3 (11732012_x_at) / RFU MBOAT4 (11741988_at) / Fold change /veh MBOAT4 (11741988_at) / RFU 11764193_at / Fold change /veh 11764193_at / RFU TMEM53 (11763286_at) / Fold change /veh TMEM53 (11763286_at) / RFU MAGEB2 (11727129_at) / Fold change /veh MAGEB2 (11727129_at) / RFU TMEM200A (11744735_a_at) / Fold change /veh TMEM200A (11744735_a_at) / RFU CCDC152 (11751479_a_at) / Fold change /veh CCDC152 (11751479_a_at) / RFU FAM211A (11726209_a_at) / Fold change /veh FAM211A (11726209_a_at) / RFU RGS16 (11746705_a_at) / Fold change /veh RGS16 (11746705_a_at) / RFU VCAN (11755009_s_at) / Fold change /veh VCAN (11755009_s_at) / RFU RHOB (11743442_s_at) / Fold change /veh RHOB (11743442_s_at) / RFU RGS16 (11720943_a_at) / Fold change /veh RGS16 (11720943_a_at) / RFU RGS16 (11720944_at) / Fold change /veh RGS16 (11720944_at) / RFU, VPS4B / Fold change vs veh, VPS4B / RFU, CREB1 / Fold change vs veh, CREB1 / RFU, DNAJC13 / Fold change vs veh, DNAJC13 / RFU, GNAQ / Fold change vs veh, GNAQ / RFU, CDK5R1 / Fold change vs veh, CDK5R1 / RFU, ZRANB3 / Fold change vs veh, ZRANB3 / RFU, CUL4A / Fold change vs veh, CUL4A / RFU, CCNY / Fold change vs veh, CCNY / RFU, UFL1 / Fold change vs veh, UFL1 / RFU, COG3 / Fold change vs veh, COG3 / RFU, DIAPH2 / Fold change vs veh, DIAPH2 / RFU, SKA2 / Fold change vs veh, SKA2 / RFU, AFF3 / Fold change vs veh, AFF3 / RFU, LMF1 / Fold change vs veh, LMF1 / RFU, IPO11 / Fold change vs veh, IPO11 / RFU, DFFB / Fold change vs veh, DFFB / RFU, FOXP1 / Fold change vs veh, FOXP1 / RFU, CARD8 / Fold change vs veh, CARD8 / RFU, STRN3 / Fold change vs veh, STRN3 / RFU, ADK / Fold change vs veh, ADK / RFU, RASSF2 / Fold change vs veh, RASSF2 / RFU, WIPF1 / Fold change vs veh, WIPF1 / RFU, LARP1B / Fold change vs veh, LARP1B / RFU, RASA1 / Fold change vs veh, RASA1 / RFU, RB1 / Fold change vs veh, RB1 / RFU, PPFIA1 / Fold change vs veh, PPFIA1 / RFU, MAT2A / Fold change vs veh, MAT2A / RFU, CCT5 / Fold change vs veh, CCT5 / RFU, WDR92 / Fold change vs veh, WDR92 / RFU, CUX1 / Fold change vs veh, CUX1 / RFU, TTC7A / Fold change vs veh, TTC7A / RFU, TMEM135 / Fold change vs veh, TMEM135 / RFU, DEPTOR / Fold change vs veh, DEPTOR / RFU, CPM / Fold change vs veh, CPM / RFU, DNAJB6 / Fold change vs veh, DNAJB6 / RFU, CACNA2D3 / Fold change vs veh, CACNA2D3 / RFU, DTX4 / Fold change vs veh, DTX4 / RFU, TFCP2 / Fold change vs veh, TFCP2 / RFU, GMCL1 /// GMCL1P1 / Fold change vs veh, GMCL1 /// GMCL1P1 / RFU, AEBP2 / Fold change vs veh, AEBP2 / RFU, SNHG1 /// SNORD22 /// SNORD25 /// SNORD26 /// SNORD27 /// SNORD28 /// SNORD29 /// SNORD31 / Fold change vs veh, SNHG1 /// SNORD22 /// SNORD25 /// SNORD26 /// SNORD27 /// SNORD28 /// SNORD29 /// SNORD31 / Fold change (Aza/veh), C12orf56 (ProbeSet 11735607_a_at) / Fold change (ACY-1035/veh), C12orf56 (ProbeSet 11735607_a_at) / Fold change (Aza/veh), FGFR1OP (ProbeSet 11751329_s_at) / Fold change (ACY-1035/veh), FGFR1OP (ProbeSet 11751329_s_at) / Fold change (Aza/veh), VPS36 (ProbeSet 11739960_a_at) / Fold change (ACY-1035/veh), VPS36 (ProbeSet 11739960_a_at) / RFU SYPL1 (11715823_x_at) / Fold change /veh SYPL1 (11715823_x_at) / RFU IGFBP7 (11715501_s_at) / Fold change /veh IGFBP7 (11715501_s_at) / RFU REEP3 (11722064_at) / Fold change /veh REEP3 (11722064_at) / RFU IGLL1 (11728026_x_at) / Fold change /veh IGLL1 (11728026_x_at): dose or concentration left out as unconfirmed
Settings: MV-4-11 cells, 48 hours

Nc1ccc(-c2cccs2)cc1NC(=O)c1ccc2c(c1)cc(C1CC1)n2CCN1CCOCC1 [ACY-1035]
RFU OR2T12 /// OR2T33 /// OR2T8 (11738714_s_at): 6.34 RFU

Reference: paper PMC5218480 (PLoS ONE, 2017)
